Article PMC8443589, “Modelling human liver fibrosis in the context of non-alcoholic steatohepatitis using a microphysiological system” (Communications Biology, 2021)
Where “and” joins values, the source holds several entries; their conditions need not be identical. Equal values may be shown once. One block for each compound: values may come before it.

What was measured:
[1] = system: liver MPS NASH model + TGFβ (PHH, KC and HSC co-cultures, high fat); test: Quantitative confocal imaging of collagen-1 and α-SMA in liver MPS NASH model with TGFβ (Fig 6c); assay type: cell-based, human; conditions: for Collagen 1 - fluroscence intensity / aSMA - fluroscence intensity: NASH + TGF, individual replicates; for reduction in collagen-1 deposition / reduction in α-SMA expression: NASH + TGFβ, highest concentrations
Description: (§1) The systems biology approach identified TGFβ to be a key driver in creating a more advanced NASH phenotype in the MPS model, with enhanced fibrotic markers and reduced liver function. […] Therefore, we explored how effective pharmacological intervention would be for NASH microtissues with high NPC numbers supplemented with TGFβ and exposed them to varying concentrations of OCA and ELF QD as previously described (Supp. Fig. 6a). […] OCA had the greatest effect on IL-1Rα whereas ELF had the greatest effect on MCP-1 reflecting the fact that while both candidate drugs have anti-inflammatory properties, but their mechanisms of action are different. […] Finally, we used our quantitative fibrosis imaging assay to assess the effect of each candidate drug on collagen-1 deposition and α-SMA expression (Fig. 6c). […] Both candidate drugs caused a significant reduction in collagen-1 deposition and α-SMA expression, with the highest concentrations of OCA and ELF causing an 80% reduction in α-SMA expression and a 75% reduction in collagen-1 deposition (Fig. 6c).
(§2) Fig. 6 Using enhanced liver MPS NASH model with TGFβ, Obeticholic acid and Elafibranor modulate disease phenotype to a greater extent than in standard NASH model. PHH, KC and HSC co-cultures were cultured in the MPS platform under high-fat conditions and dosed with varying concentrations of Obeticholic acid (OCA) and Elafibranor (ELF) QD or vehicle control for 10 days, following an initial 4-day pre-culture phase. Throughout the compound dosing period TGFβ was also dosed onto all microtissues (NASH only vehicle control samples were also included in the study for comparison, which were not treated with TGFβ or dosed with any compound). a The secreted cytokine profile from treated liver microtissues was compared to determine the effects of each compound on the inflammatory profile of the liver with samples analysed at day 8 and 14 of the culture. Data were normalised by Z-transformation to allow comparison of all analytes (white = undetected). b The expression of fibrosis-associated biomarkers was analysed on day 14 media samples and compared to NASH + TGFβ control samples. c Liver microtissues were stained for collagen-type I, α-SMA, nuclei (DAPI), phalloidin (green) and imaged by confocal microscopy. Representative images are shown and scale bars 200 µm. Staining of microtissues was quantified by measuring total fluorescence intensity throughout individual microtissues, each data point represents an average of all microtissues per MPS culture (min 8, max 20). All datapoints shown with error bars highlighting means ± SD, all data from a minimum of three independent cultures: all comparisons were made to NASH + TGFβ control samples.
To visualise fibrosis proteins in the liver microtissues, scaffolds were fixed for 15 min in 4% paraformaldehyde following culture in the MPS platform. They were permeabilized with 0.1% Triton-X and blocked with 2% BSA before staining overnight at 4 °C with antibodies against alpha SMA (Abcam, UK - ab7817) and collagen 1 (Rockland, USA—600 401 103 0.5). Scaffolds were then stained with fluorescently conjugated secondary antibodies (Alexa-Fluor 555 goat anti-rabbit #A21429; Alexa-Fluor 647 donkey anti-rabbit #A31573; Alexa-Fluor 555 goat anti-mouse #A21424; Alexa-Fluor 647 goat anti-mouse #A21235 (Thermofisher, UK) along with Phalloidin 488 (Thermofisher, UK) and Hoechst 33342 (Invitrogen) for 1.5 h at room temperature. Scaffolds were washed three times with PBS and mounted onto glass microscope slides with anti-fade mounting medium. Confocal fluorescent images of the stained scaffolds were captured using a Cell Voyager 7000 (CV700, Yokogawa Inc.) automated confocal microscope. Image acquisition was controlled using the SearchFirst functionality of the Wako Software suite (Fujifilm Wako Automation). A workflow was designed to automatically locate and acquire images of each scaffold in a consistent and unbiased manner (Supp. Fig. 1). […]

[2] = system: liver MPS NASH model + TGFβ (PHH, KC and HSC co-cultures, high fat); test: Fibrosis-associated soluble biomarkers (TIMP-1, pro-collagen 1) in liver MPS NASH model with TGFβ dosed with OCA or ELF (Fig 6b); assay type: cell-based, human; conditions: for Pro-collagen 1 / TIMP-1: NASH + TGF, individual replicates
Description: as §1, §2
(§3) Soluble biomarkers in cell culture medium from the MPS were analysed by enzyme-linked immunosorbent assay (ELISA); IL-6 was measured by Human IL-6 DuoSet ELISA (R&D Systems); MCP-1 was measured by Human CCL2/MCP-1 DuoSet ELISA (R&D Systems); pro-collagen 1 was measured by Human Pro-Collagen I α1 DuoSet (R&D Systems); TIMP-1 was measured by Human TIMP-1 Quantikine ELISA Kit (R&D Systems); Fibronectin was measured by Human Fibronectin DuoSet ELISA (R&D Systems); YKL-40 was measured by Human Chitinase 3-like 1 Quantikine ELISA Kit (R&D Systems); Albumin secretion was measured by Human Albumin AssayMax™ ELISA kit (Assay Pro, St. Charles, MO). For all assays, the manufacturer’s protocol was followed.
Liver microtissues were cultured for 4 days in HEP-FAT medium, before dosing with obeticholic acid or elafibranor. Both compounds were dissolved in DMSO, diluted in cell culture medium (final DMSO concentration ≤1%) and added to microtissues during a full medium change every two days and in addition on the intervening days compounds were spiked into the media to increase drug concentration back to desired concentrations. Cultures were maintained in the presence of the compound, for a total of 10 days in the presence or absence of TGFβ.

[3] = Non-specific compound binding: drug recovery in blank liver MPS plates (no cells), LC-MS; assay type: in vitro ADME; conditions: blank liver MPS platform/plates, vs input media, read-out: Drug recovery incubation in blank MPS platform (no cells)
[4] = system: liver MPS NASH model (PHH, KC and HSC co-cultures, high fat); test: Cell health in dosed NASH microtissues: tissue density (Hoechst) and albumin production (ELISA); assay type: cell-based, human; conditions: for cytotoxicity in NASH microtissues: QD for 10 days
Procedure: Following 10 days of compound treatment (Supp. Fig. 6a), NASH microtissues were assessed for the production of inflammatory and fibrotic biomarkers (Fig. 3a), the expression of pro-fibrotic genes (Fig. 3b) and the expression of collagen-1 and alpha SMA (Fig. 3c, d). […] Crucially using the developed quantitative imaging approach, both OCA and ELF abrogated α-SMA expression in a concentration-dependent manner by up to 50% and collagen-1 deposition was reduced by up to 35% (Fig. 3d).
as §3
Supplemental Figure 6 – Treatment of NASH microtissues in MPS platform with Obeticholic acid and […]
PHH, KC and HSC co-cultures were cultured in the MPS platform under high fat conditions and dosed with varying concentrations of Obeticholic acid (OCA) and Elafibranor (ELF) dosed QD for 10 days, following an initial 4-day pre-culture phase. A) Overview of the experimental timeline. B) Tissue density of scaffolds from each control was assessed by quantifying Hoechst staining in each FOV (8 FOV per culture) at the end of the study. C) Albumin production between conditions was compared by ELISA at two timepoints. All datapoint are shown and error bars highlight means ± SD.
(1 picture or pasted object on this page, not shown here)

soluble biomarkers TIMP-1 and pro-collagen 1 ([2]; NASH + TGFβ, day 14 media): reduced by ELF treatment | recovery at 1 µM [3]: 97% | Albumin production ([4]; higher doses, 10 days of compound treatment): slightly reduce albumin production
Compound: CSc1ccc(C(=O)/C=C/c2cc(C)c(OC(C)(C)C(=O)O)c(C)c2)cc1 [Elafibranor]
Collagen 1 - fluroscence intensity ([1]; 1.3 uM, listed as ELF): 1733.28 and 2118.75 and 2931.26 | aSMA - fluroscence intensity ([1]; 1.3 uM, listed as ELF): 730.875 and 499.771 and 815.833 | Collagen 1 - fluroscence intensity ([1]; 13 uM, listed as ELF): 1948.99 and 2325.43 | aSMA - fluroscence intensity ([1]; 13 uM, listed as ELF): 408.818 and 783.286 | Collagen 1 - fluroscence intensity ([1]; 65 uM, listed as ELF): 815.347 and 1263.35 and 1286.58 | aSMA - fluroscence intensity ([1]; 65 uM, listed as ELF): 106.491 and 171.359 and 165.195 | reduction in collagen-1 deposition [1]: 75% | reduction in α-SMA expression [1]: 80% | Pro-collagen 1 ([2]; 1.3 uM, listed as ELF): 415.15 pg/day and 440.97 pg/day and 422.37 pg/day | TIMP-1 ([2]; 1.3 uM, listed as ELF): 239.08 pg/day and 252.67 pg/day and 220.1 pg/day | Pro-collagen 1 ([2]; 13 uM, listed as ELF): 371.17 pg/day and 444.41 pg/day and 309.29 pg/day | TIMP-1 ([2]; 13 uM, listed as ELF): 191.73 pg/day and 205.16 pg/day and 212.17 pg/day | Pro-collagen 1 ([2]; 65 uM, listed as ELF): 282.32 pg/day and 426.16 pg/day and 245.63 pg/day | TIMP-1 ([2]; 65 uM, listed as ELF): 278.05 pg/day and 246.83 pg/day and 169.84 pg/day | cytotoxicity in NASH microtissues [4]: does not cause cytotoxicity

recovery at 1 µM [3]: 110%
Compound: CC[C@H]1[C@@H](O)[C@@H]2[C@H](CC[C@]3(C)[C@@H]([C@H](C)CCC(=O)O)CC[C@@H]23)[C@@]2(C)CC[C@@H](O)C[C@@H]12 [Obeticholic acid]
Collagen 1 - fluroscence intensity ([1]; 0.25 uM, listed as OCA): 1951.11 and 3372.52 and 2271.93 | aSMA - fluroscence intensity ([1]; 0.25 uM, listed as OCA): 697.585 and 1188.53 and 484.974 | Collagen 1 - fluroscence intensity ([1]; 5 uM, listed as OCA): 1987.74 and 1316.74 and 1611.55 | aSMA - fluroscence intensity ([1]; 5 uM, listed as OCA): 480.346 and 350.765 and 416.589 | Collagen 1 - fluroscence intensity ([1]; 12.5 uM, listed as OCA): 1674.28 and 412.802 and 1126.69 | aSMA - fluroscence intensity ([1]; 12.5 uM, listed as OCA): 287.458 and 39.7737 and 104.277 | reduction in collagen-1 deposition [1]: 75% | reduction in α-SMA expression [1]: 80% | Pro-collagen 1 ([2]; 0.25 uM, listed as OCA): 444.17 pg/day and 318.9 pg/day and 467.42 pg/day | TIMP-1 ([2]; 0.25 uM, listed as OCA): 197.88 pg/day and 287.39 pg/day and 303.89 pg/day | Pro-collagen 1 ([2]; 5 uM, listed as OCA): 576.99 pg/day and 525.8 pg/day and 497.39 pg/day | TIMP-1 ([2]; 5 uM, listed as OCA): 311.28 pg/day and 328.19 pg/day and 368.24 pg/day | Pro-collagen 1 ([2]; 12.5 uM, listed as OCA): 448.27 pg/day and 351.02 pg/day and 505.76 pg/day | TIMP-1 ([2]; 12.5 uM, listed as OCA): 365.14 pg/day and 327.97 pg/day and 326.64 pg/day | cytotoxicity in NASH microtissues [4]: does not cause cytotoxicity

Compound: TGFβ: recombinant TGF beta 1 protein (Abcam), 1 ng/ml cue
collagen-1 and α-SMA signal, fat and TGFβ compared to just fat alone ([1]; NASH microtissues, high NPC): significant increase
